Test results: the supplement of paper PMC4862054

Key:
Conditions in all cases: incubation time: 72 h
[1] = system: HCC1599; experiment: drug sensitivity score (DSS), CellTox Green (DSS (AUC-based score)); higher = stronger drug effect (viability inhibition or cytotoxicity); extreme values may be limits of the assay
Method in brief: (§1)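 Breast cancer cell lines (20 µl suspension) were seeded into 384-well plates holding compound at 5 concentrations in 10-fold steps over a compound-specific 10,000-fold range, then incubated 72 h. CellTox Green fluorescence (485/520 nm) was read first, then CellTiter-Glo luminescence after 10 min at room temperature. Each plate was normalised to 0.1 % DMSO and a positive kill control. The drug sensitivity score was calculated from the area under the fitted dose-response curve.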

[2] = system: BT-549; experiment: as above
Method in brief: as §1

[3] = system: CAL-51; experiment: as above
Method in brief: as §1

[4] = system: MDA-MB-453; experiment: as above
Method in brief: as §1

[5] = system: CAL-148; experiment: as above
Method in brief: as §1

[6] = system: HDQ-P1; experiment: as above
Method in brief: as §1

[7] = system: Hs578T; experiment: as above
Method in brief: as §1

[8] = system: MDA-MB-231; experiment: as above
Method in brief: as §1

[9] = system: MFM-223; experiment: as above
Method in brief: as §1

[10] = system: DU-4475; experiment: as above
Method in brief: as §1

[11] = system: CAL-85-1; experiment: normalised viability (% of control), CellTiter-Blue; higher = more viable cells (about 100 = DMSO control)
Procedure: (§2)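 DSRT, CellTiter-Blue viability, 72 h incubation. Signal is normalised to DMSO and benzethonium chloride controls. Value is the normalised response at dose 3.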

[12] = system: HCC1599; experiment: as above
Procedure: as §2

[13] = system: BT-549; experiment: as above
Procedure: as §2

[14] = system: MDA-MB-468; experiment: as above
Procedure: as §2

[15] = system: CAL-51; experiment: as above
Procedure: as §2

[16] = system: MDA-MB-436; experiment: as above
Procedure: as §2

[17] = system: MDA-MB-453; experiment: as above
Procedure: as §2

[18] = system: SK-BR-3; experiment: as above
Procedure: as §2

[19] = system: CAL-148; experiment: as above
Procedure: as §2

[20] = system: HDQ-P1; experiment: as above
Procedure: as §2

[21] = system: Hs578T; experiment: as above
Procedure: as §2

[22] = system: MDA-MB-231; experiment: as above
Procedure: as §2

[23] = system: HCC1937; experiment: as above
Procedure: as §2

[24] = system: MFM-223; experiment: as above
Procedure: as §2

[25] = system: BT-474; experiment: as above
Procedure: as §2

[26] = system: DU-4475; experiment: as above
Procedure: as §2

[27] = system: CAL-120; experiment: as above
Procedure: as §2

[28] = system: HCC1143; experiment: as above
Procedure: as §2

[29] = system: CAL-120; experiment: normalised viability (% of control), CellTiter-Blue; higher = more viable cells (about 100 = DMSO control); remark: listed apart in the source
Method in brief: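 384-well plates were pre-loaded with compound in 5 µl medium before 20 µl of breast cancer cell suspension was seeded. Following 72 h incubation, 2.5 µl CellTiter-Blue reagent was added for 2 h at 37 °C. Fluorescence was read at 560/590 nm and plates were normalised to vehicle (100) and a positive kill control (0), checked by Z'-factor. Normalised viability is reported at a single listed concentration of the series.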

With `CC(C)(C)NC(=O)[C@H]1CC[C@H]2[C@@H]3CC[C@H]4NC(=O)C=C[C@]4(C)[C@H]3CC[C@]12C` [Finasteride] the drug sensitivity score [1] was 0, the drug sensitivity score [2] was 0 and the drug sensitivity score [3] was 0. The drug sensitivity score [4] was 0, the drug sensitivity score [5] was 0 and the drug sensitivity score [6] was 0. It also gave a drug sensitivity score [7] of 2.04, a drug sensitivity score [8] of 0 and a drug sensitivity score [9] of 3.14. For the same compound, the drug sensitivity score [10] was 0, the normalised viability ([11]; 10 nM) was 97% and the normalised viability ([12]; 100 nM) was 106%. The normalised viability ([13]; 100 nM) was 107%, the normalised viability ([14]; 100 nM) was 103% and the normalised viability ([15]; 10 nM) was 109%. It also gave a normalised viability ([16]; 100 nM) of 110%, a normalised viability ([17]; 10 nM) of 103% and a normalised viability ([18]; 100 nM) of 104%. It also gave a normalised viability ([19]; 10 nM) of 93.2%, a normalised viability ([20]; 10 nM) of 106% and a normalised viability ([21]; 100 nM) of 105%. For the same compound, the normalised viability ([22]; 100 nM) was 94.2%, the normalised viability ([23]; 100 nM) was 91% and the normalised viability ([24]; 100 nM) was 95.1%. The normalised viability ([25]; 100 nM) was 125%, the normalised viability ([26]; 10 nM) was 107% and the normalised viability ([27]; 100 nM) was 108%. The normalised viability ([28]; 100 nM) was 107%, the normalised viability ([29]; 10 nM) was 108% and the normalised viability ([29]; 1000 nM) was 108%. For the same compound, the normalised viability ([29]; 10000 nM) was 116%.

With `Nc1ccn([C@@H]2O[C@H](CO)[C@@H](O)C2(F)F)c(=O)n1` [Gemcitabine] the drug sensitivity score [1] was 0, the drug sensitivity score [2] was 0 and the drug sensitivity score [3] was 13.4. For the same compound, the drug sensitivity score [4] was 0, the drug sensitivity score [5] was 11.2 and the drug sensitivity score [6] was 0. For the same compound, the drug sensitivity score [7] was 0, the drug sensitivity score [8] was 0 and the drug sensitivity score [9] was 0. It also gave a drug sensitivity score [10] of 0, a normalised viability ([11]; 1 nM) of 93.2% and a normalised viability ([12]; 10 nM) of 88.8%. The normalised viability ([13]; 10 nM) was 84%, the normalised viability ([14]; 10 nM) was 68.9% and the normalised viability ([15]; 1 nM) was 105%. It also gave a normalised viability ([16]; 10 nM) of 94.3%, a normalised viability ([17]; 1 nM) of 111% and a normalised viability ([18]; 10 nM) of 77.4%. For the same compound, the normalised viability ([19]; 1 nM) was 106%, the normalised viability ([20]; 1 nM) was 125% and the normalised viability ([21]; 10 nM) was 82.1%. For the same compound, the normalised viability ([22]; 10 nM) was 77.9%, the normalised viability ([23]; 10 nM) was 63.7% and the normalised viability ([24]; 10 nM) was 92.6%. The normalised viability ([25]; 10 nM) was 101%, the normalised viability ([26]; 1 nM) was 116% and the normalised viability ([27]; 10 nM) was 67.3%. The normalised viability ([28]; 10 nM) was 70.7%, the normalised viability ([29]; 1 nM) was 107% and the normalised viability ([29]; 100 nM) was 41.6%. It also gave a normalised viability ([29]; 1000 nM) of 43%.
